The values that follow come from patent publication EP3928777A1, “4,5-DIHYDRO-OXAZOL-2-YLAMINE DERIVATIVES FOR USE IN THE PREVENTION OR TREATMENT OF ALCOHOL USE DISORDER” (Instytut Biologii Doswiadczalnej im. Marcelego Nenckiego …, priority 2020, dated 2021).

One data set has as its system C57BL/6 mouse. The experiment in a line: Amount of alcohol (20%) consumed by alcohol-trained mice in IntelliCages after intraperitoneal injection. The format is in vivo. As to conditions: versus vehicle control group. The protocol: The study involved 30 C57BL/6 mouse subjects that had undergone a two-month, earlier adaptive training to drink alcohol (20%) in IntelliCages (Fig. 1), under typical living conditions (temperature: 21-23°C, humidity 50-60%, 12/12 light-dark cycle). During the adaptive training, the mice had constant access to food and water except for: • 1. 25 days, during which, 2 hours after the beginning of the dark phase, all water bottles were replaced for 3 hours with bottles containing 20% alcohol (no access to clean water at all). • 2. 15 days, during which, 2 hours after the beginning of the dark phase, half of the water bottles were replaced for 3 hours with bottles containing 20% alcohol (possibility to choose water or alcohol). […]
During the adaptive training, the amount of alcohol consumed was recorded for each animal separately. […] The degree of preference for drinking alcohol was determined according to the following criteria: • high-drinkers: on average from 100 to 200 licks of alcohol, with a choice between water and alcohol (3 hour session); • medium-drinkers: on average from 50 to 100 licks of alcohol, with a choice between water and alcohol; (3 hour session); • low-drinkers: on average from 0 to 50 licks of alcohol, with a choice between water and alcohol; (3 hour session); […]

Data set [1] is described as follows: Solubility in the injection vehicle. To be noted: solution of 5% ethanol and 10% collyphor, for an exemplary dose of 10 mg/kg body weight, intraperitoneal administration. Format: physicochemical. The method, then:
(§1) The compound of Formula II is additionally easy to prepare and formulate (well soluble in a solution of 5% ethanol and 10% collyphor for an exemplary dose of 10 mg/kg body weight in an intraperitoneal administration), it appears to be non-toxic in animal models.

The next data set has as its system mice. In words: Motivation to drink alcohol: progressive nose-poke test in IntelliCages. As to conditions: 10 mg/kg bw intraperitoneal, 20% alcohol, attempts measured over 20 hours, 3 tests, Fig. 5. Format: in vivo. The method, then:
The effect of RO5256390 administration on motivation to drink alcohol was also assessed experimentally. In this experiment a new group of animals was used, these were 13 animals that underwent a three-month adaptive training to drink alcohol (20%) in IntelliCages. The motivation to drink alcohol was then assessed for each animal by conducting 3 tests. For the purposes of the test, the IntelliCage was designed in such a way that access to alcohol for a given animal was only possible, with a certain number of so-called "nose-pokes", meaning cutting the laser beam with the snout when trying to reach the alcohol bottle. In order to drink alcohol, the animal must first cut the beam twice, then 4, 8, 12, 16 times etc. After the required number of nose-pokes are made, the alcohol-blocking door opens. The more attempts to get into the alcohol bottle and the greater the number of beam intersection events achieved, the greater the motivation to drink alcohol. Each test started when half of the water bottles was replaced with 20% alcohol bottles. During the next 20 hours the number of drinking attempts was measured for each animal. After 3 series of motivational tests, which were carried out at weekly intervals, the animals were divided into two experimental groups. […]

The test system of data set [2] is cocaine-dependent or binge eating animals. To be noted: cited from earlier work.
Another data set deals with animal models. In words: Toxicity in animal models. Format: in vivo. The method, then: as §1

With `CC[C@@H](C[C@H]1COC(N)=N1)c1ccccc1` [RO5256390], the “amount of consumed alcohol during 20 hours after injection” value in the data set on C57BL/6 mouse (10 mg/kg bw intraperitoneal, 20% alcohol, Fig. 3) is given as “statistically significant lower amount of alcohol”. In addition, the “amount of consumed alcohol in the 20 hours post injection after a 10 day abstinence period” value with C57BL/6 mouse (access to alcohol blocked for 10 days, treated as previously (10 mg/kg bw i.p.), Fig. 4) was “statistically significantly lower amount of alcohol”. Besides, the solubility result in data set [1] is listed as “well soluble”. The “motivation to drink alcohol (number of alcohol drinking attempts)” value in the data set on mice was “reduces the motivation to drink alcohol”. Further, the suppressing compulsive behavior entry in data set [2] was “effective in suppressing compulsive behavior”. Also, the toxicity entry in the data set on animal models is recorded as “non-toxic”.
